Reference: article PMC10761937, “Functional engineering of human iPSC‐derived parasympathetic neurons enhances responsiveness to gastrointestinal hormones” (FEBS Open Bio, 2023)
Where no end group is shown, it is not given here.

Assays:
CCKAR‐neurons [1] = assay: Ca^2+ imaging, CCKAR‐neurons (iPSC‐derived); format: cell-based, human; conditions: 100 nM CCK‐33; CCKAR‐neurons day 35; Fluo‐8 AM; ΔF stim/F 0; n = 20; Student's t‐test vs. 0 nM
Method: (§1) Before initiating differentiation, the iPSCs (1–2 × 10^5 cells·cm^−2; Cell lines and cell culture section) were transferred to 6‐well plates (Corning, Inc., Corning, NY, USA) coated with 2‐methacryloyloxyethyl phosphorylcholine (MPC) polymer (Lipidure CM5206E; NOF, Tokyo, Japan). The cells were maintained in mTeSR1 cGMP medium containing 10 μM Y‐27632 (Fujifilm Wako Pure Chemical Industries) for 2 or 3 days to form embryoid body (EBs) in a rotary shaker at 95 r.p.m. (OS‐762RC; Optime, Tokyo, Japan). Subsequently, iPSCs were differentiated into neural crest cells (NCCs), as previously reported. Briefly, NCCs were induced from Ebs using knockout serum replacement (KSR) medium and N2 medium with graded addition of nerve growth factors and signaling factors. KSR medium was composed of DMEM‐F12 (Fujifilm Wako Pure Chemical Industries), 20% KSR (Thermo Fisher Scientific), 1% NEAA, 1% monothioglycerol (Fujifilm Wako Pure Chemical Industries), and 1% P/S. N2 medium consisted of DMEM‐F12, 1% N2 supplement (Fujifilm Wako Pure Chemical Industries), 1% NEAA, and 1% P/S. When EB formation was considered day 0 of induction, the medium was changed at days 2, 5, 7, 9, and 12. […]

CCKAR‐neurons [2] = assay: MEA recording of neuronal firing, CCKAR‐neurons; format: cell-based, human; conditions: 100 nM vs. 0 nM CCK‐33: P = 0.018; day 27; 0 nM n = 128 electrodes, 100 nM n = 57 electrodes; 5 min before and after ligand addition
Method: as §1

CCKAR = assay: Ca^2+ imaging, CCKAR‐HEK293T cells; format: cell-based, human; conditions: Fluo‐8 AM, Ringer's solution pH 7.4, ΔF/F 0, n = 10, Dunnett's test vs. 0 nM
Method: (§2) HEK293T cells (Lenti‐X 293T Cell line; TaKaRa, Shiga, Japan) were maintained in Dulbecco's Modified Eagle Medium (DMEM; Fujifilm Wako Pure Chemical Industries, Osaka, Japan) supplemented with 10% fetal bovine serum (Biowest, Nuaillé, France), 1% non‐essential amino acids (NEAA) (Fujifilm Wako Pure Chemical Industries), and 1% penicillin–streptomycin (P/S) (Fujifilm Wako Pure Chemical Industries) and cultured in non‐coated culture plates at 37 °C and in an incubator with 5% CO2. The culture medium was replaced every 2–3 days. At 80–90% confluence, the cell colonies were digested into single cells using TrypLE Express (Thermo Fisher Scientific). The resulting cells were used for lentiviral transfection and agonist experiments.
(§3) Figure S1 presents the protocol used for this experiment. Lentiviral vectors were acquired from VectorBuilder (VectorBuilder Japan, Inc., Kanagawa, Japan). […]
(§4) Transduced HEK293T and neurons were incubated with 10 μM Fluo‐8 AM, a calcium indicator (AAT Bioquest, Pleasanton, CA, USA), in each culture medium (Cell lines and cell culture and Induction to parasympathetic neurons sections) at 37 °C for 30 min. […] Fluorescence (excitation: 490 nm, emission: 525 nm) was detected using a confocal spinning disk confocal laser scanning unit (CSU‐W1; Yokogawa Electric, Tokyo, Japan) and an LED light (X‐Cite 120LED; Opto Science, Tokyo, Japan). […]

GLP2R‐neurons = assay: Ca^2+ imaging, directly transduced GLP2R‐neurons; format: cell-based, human; conditions: 100 nM GLP2; GLP2R‐neurons (transduced during differentiation) day 35; Fluo‐8 AM; n = 20
Method: as §1

GLP2R = assay: Ca^2+ imaging, GLP2R‐HEK293T cells; format: cell-based, human; conditions: Fluo‐8 AM, Ringer's solution pH 7.4, ΔF/F 0, n = 20
Method: as §2, §3, §4

HTR3A = assay: Ca^2+ imaging, HTR3A‐HEK293T cells; format: cell-based, human; conditions: Fluo‐8 AM, Ringer's solution pH 7.4, ΔF/F 0, n = 10
Method: as §2, §3, §4

HTR3A‐neurons = assay: Ca^2+ imaging, directly transduced HTR3A‐neurons; format: cell-based, human; conditions: 100 μM 5‐HT; HTR3A‐neurons (transduced during differentiation) day 35; Fluo‐8 AM; n = 20; Student's t‐test vs. 0 μM
Method: as §1

rat nodal ganglion cells = conditions: various concentrations; ref [31], [32], [33], [34]; cited from earlier work
From the text: Previous reports indicate that rat nodal ganglion cells respond to various concentrations of hormones, including CCK, GLP1, PYY, and 5‐HT [31, 32, 33, 34]. […] However, it is noteworthy that the overexpression of these receptors in our model may not reconstruct natural expres ...

## CCK‐33: CCK‐33 (4201‐s; Peptide Institute, Inc.) (KAPSGRMSIVKNLQNLDPSHRISDRDYMGWMDF; ends and bridges not checked; UniProt P06307 71-103, looked up)
CCKAR‐neurons [1]
  Intracellular Ca^2+ concentration: significantly increased the intracellular Ca^2+ concentration
CCKAR‐neurons [2]
  Neuronal firing frequency change rate: significantly increased the neuronal firing frequency change rate
CCKAR
  Concentration giving response (change in intracellular Ca^2+ concentration): > 100 nM

## CCK‐8: CCK‐Octapeptide (26–33) (CCK‐8) (4100‐v; Peptide Institute, Inc.) (DYMGWMDF; ends and bridges not checked; UniProt P06307 96-103, looked up)
CCKAR
  Concentration giving response (change in intracellular Ca^2+ concentration): > 10 nM

## GLP2: GLP2 (4276‐v; Peptide Institute, Inc.) (HADGSFSDEMNTILDNLAARDFINWLIQTKITD; Glucagon-like peptide 2; UniProt P01275 146-178, looked up)
GLP2R‐neurons
  Percentage change in fluorescence intensity: 3%
  Response in Ca^2+ imaging: responded slightly
GLP2R
  Concentration giving response (Ca^2+ imaging): > 100 nM

## NCCc1c[nH]c2ccc(O)cc12 [5‐HT, 5‐hydroxytryptamine]
HTR3A
  Concentration giving response (intracellular Ca^2+ concentration): > 10 µM
HTR3A‐neurons
  Intracellular Ca^2+ concentration: increased intracellular Ca^2+ concentration
Rat nodal ganglion cells
  Response of rat nodal ganglion cells: respond
